pIC50: −log10 of the molar value.
Columns and labels:
Plasmodium falciparum [1] = experiment: Antimalarial activity against chloroquine-sensitive Plasmodium falciparum 3D7; type: functional, organism-based
Cytochrome P450 3A4 [2] = biological target: T1, Cytochrome P450 3A4 (Homo sapiens, UniProt P08684); experiment: Inhibition of human CYP3A4 using DEF substrate; type: ADME
Cytochrome P450 1A2 = biological target: T2, Cytochrome P450 1A2 (Homo sapiens, UniProt P05177); experiment: Inhibition of human CYP1A2; type: ADME
T2 sequence (P05177 whole entry): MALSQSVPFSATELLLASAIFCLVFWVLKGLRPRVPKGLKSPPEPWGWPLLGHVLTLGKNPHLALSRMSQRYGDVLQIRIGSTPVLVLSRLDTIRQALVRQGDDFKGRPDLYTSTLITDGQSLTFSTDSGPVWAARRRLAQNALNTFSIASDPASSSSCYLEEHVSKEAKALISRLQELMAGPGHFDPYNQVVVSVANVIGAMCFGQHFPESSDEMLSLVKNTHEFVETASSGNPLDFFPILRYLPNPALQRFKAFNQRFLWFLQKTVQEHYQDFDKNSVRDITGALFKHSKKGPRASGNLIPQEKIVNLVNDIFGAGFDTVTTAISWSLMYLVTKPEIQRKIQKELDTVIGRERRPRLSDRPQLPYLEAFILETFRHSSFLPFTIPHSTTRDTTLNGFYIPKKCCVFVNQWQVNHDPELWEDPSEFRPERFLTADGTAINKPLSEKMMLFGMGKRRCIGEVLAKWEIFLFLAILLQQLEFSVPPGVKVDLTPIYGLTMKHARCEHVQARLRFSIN

Cytochrome P450 2C9 = Cytochrome P450 2C9 (Homo sapiens, UniProt P11712); experiment: Inhibition of human CYP2C9; type: ADME
Cytochrome P450 3A4 [3] = biological target: T1, Cytochrome P450 3A4; experiment: Inhibition of human CYP3A4 using PPR substrate; type: ADME; conditions: read-out: IC50
Cytochrome P450 2D6 = Cytochrome P450 2D6 (Homo sapiens, UniProt P10635); experiment: Inhibition of human CYP2D6; type: ADME
Cytochrome P450 2C8 = biological target: T3, Cytochrome P450 2C8 (Homo sapiens, UniProt P10632); experiment: Inhibition of human CYP2C8; type: ADME
T3 sequence (P10632 whole entry): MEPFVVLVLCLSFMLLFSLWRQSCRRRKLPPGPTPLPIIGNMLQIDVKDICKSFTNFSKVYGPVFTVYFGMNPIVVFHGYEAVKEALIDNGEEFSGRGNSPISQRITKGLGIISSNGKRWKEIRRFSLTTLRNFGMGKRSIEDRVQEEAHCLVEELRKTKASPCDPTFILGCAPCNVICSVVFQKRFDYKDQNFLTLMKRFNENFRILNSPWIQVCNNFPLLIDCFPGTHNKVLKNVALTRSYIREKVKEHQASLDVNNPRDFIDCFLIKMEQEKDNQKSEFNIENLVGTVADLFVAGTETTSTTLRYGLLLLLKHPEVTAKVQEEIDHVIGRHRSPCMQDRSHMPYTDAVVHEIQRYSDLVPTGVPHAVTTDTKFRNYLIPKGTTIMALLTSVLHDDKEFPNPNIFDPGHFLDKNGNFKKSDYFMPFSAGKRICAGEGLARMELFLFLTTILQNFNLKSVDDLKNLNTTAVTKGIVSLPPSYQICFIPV

Cytochrome P450 2C19 = Cytochrome P450 2C19 (Homo sapiens, UniProt P33261); experiment: Inhibition of human CYP2C19; type: ADME
Heme [4] = experiment: Binding affinity to heme assessed as binding constant for stepwise binding of 2 equivalent of drug to 1 molecule of heme in presence of 40% DMSO by UV-visible spectroscopy
Heme [5] = experiment: Binding affinity to heme assessed as binding constant for stepwise binding of 2 molecules of heme to 1 equivalent of drug in presence of 40% DMSO by UV-visible spectroscopy
Plasmodium yoelii [6] = experiment: Antimalarial activity as minimal concentration for parasite elimination at day 23 against Plasmodium yoelii 17X intravenously inoculated CD1 mice (Mus musculus) dosed 1 hrs post infection then daily for 4 days
[7] = Oral bioavailability in mouse; type: ADME, organism-based; conditions: in vivo
[8] = Clearance in iv dosed rat; type: ADME, organism-based; conditions: in vivo
[9] = Oral bioavailability in rat; type: ADME, organism-based; conditions: in vivo
Plasmodium yoelii [10] = experiment: Antimalarial activity as reduced parasitaemia against Plasmodium yoelii 17X infected CD1 mice (Mus musculus) perorally dosed daily for 4 days; type: functional; conditions: po, 96 h
[11] = Clearance in iv dosed mouse; type: ADME, organism-based; conditions: in vivo
Plasmodium falciparum [12] = experiment: Antimalarial activity against chloroquine-resistant Plasmodium falciparum V1/S; type: functional, organism-based; conditions: V1S
Plasmodium falciparum [13] = experiment: Antimalarial activity against chloroquine-resistant Plasmodium falciparum K1
Plasmodium falciparum [14] = experiment: Antimalarial activity against chloroquine-resistant Plasmodium falciparum TM4; type: functional, organism-based
Plasmodium falciparum [15] = experiment: Antimalarial activity against chloroquine-sensitive Plasmodium falciparum HB3; type: functional, organism-based
Plasmodium falciparum [16] = experiment: Antimalarial activity against […] Plasmodium falciparum PH3; type: functional, organism-based
Plasmodium falciparum [17] = experiment: Antimalarial activity against chloroquine-resistant Plasmodium falciparum J164; type: functional, organism-based
Plasmodium falciparum [18] = experiment: Antimalarial activity against chloroquine-resistant Plasmodium falciparum TM6; type: functional, organism-based
Plasmodium falciparum [19] = experiment: Antimalarial activity against […] Plasmodium falciparum Dd2; type: functional, organism-based
Rattus norvegicus [20] = experiment: Metabolic stability in Wistar rat assessed as 2-[2-Chloro-5-(7-chloro-quinolin-4-ylamino)-benzylamino]-2-methyl-propionic acid level at 54 umol/kg, iv administered as [3H]labeled drug after 5 hrs; type: ADME, organism-based; conditions: in vivo
[21] = Therapeutic index, ratio of IC50 for Wistar rat hepatocytes to IC50 for Plasmodium falciparum HB3; type: cell-based, Hepatocyte
[22] = Toxicity against Wistar rat hepatocytes after 6 hrs by trypan blue exclusion method; type: cell-based, Hepatocyte; conditions: read-out: TC50
Rattus norvegicus [23] = experiment: Metabolic stability in Wistar rat assessed as 2-Chloro-5-(7-chloro-quinolin-4-ylamino)-benzoic acid level at 54 umol/kg, iv administered as [3H]labeled drug after 5 hrs; type: ADME, organism-based; conditions: in vivo
[24] = Biodistribution in cannulated Wistar rat bile assessed as [3H]labeled drug level at 54 umol/kg, iv after 5 hrs; type: ADME, organism-based; conditions: in vivo
[25] = Distribution coefficient, log D at pH 7.4; conditions: octanol/water
Plasmodium berghei = experiment: Antimalarial activity as reduced parasitaemia against Plasmodium berghei ANKA infected CD1 mice (Mus musculus) perorally dosed daily over 4 days; type: functional; conditions: po, 96 h
[26] = Drug metabolism in cannulated Wistar rat assessed as biliary excretion of [3H]labeled drug level at 54 umol/kg, iv after 5 hrs; type: ADME, organism-based, Bile; conditions: in vivo
Kidney [27] = experiment: Biodistribution in cannulated Wistar rat kidney assessed as [3H]labeled drug level at 54 umol/kg, iv after 5 hrs; type: ADME, organism-based; conditions: in vivo
[28] = biological target: β-hematin formation (no protein target); experiment: Inhibition of beta-hematin formation as molar equivalent relative to hemin causing blockade in BHIA
Liver [29] = experiment: Biodistribution in Wistar rat liver assessed as [3H]labeled drug level at 54 umol/kg, iv after 24 hrs; type: ADME, organism-based; conditions: in vivo
Rattus norvegicus [30] = experiment: Metabolic stability in Wistar rat assessed as [3-(tert-Butylamino-methyl)-4-chloro-phenyl]-(7-chloro-1-oxy-quinolin-4-yl)-amine level at 54 umol/kg, iv administered as [3H]labeled drug after 5 hrs; type: ADME, organism-based; conditions: in vivo
Lung = experiment: Biodistribution in Wistar rat lung assessed as [3H]labeled drug level at 54 umol/kg, iv after 24 hrs; type: ADME, organism-based; conditions: in vivo
Liver [31] = experiment: Biodistribution in cannulated Wistar rat liver assessed as [3H]labeled drug level at 54 umol/kg, iv after 5 hrs; type: ADME, organism-based; conditions: in vivo
[32] = Partition coefficient, log P of the compound; type: physicochemical; conditions: octanol/water
Kidney [33] = experiment: Biodistribution in Wistar rat kidney assessed as [3H]labeled drug level at 54 umol/kg, iv after 24 hrs; type: ADME, organism-based; conditions: in vivo
Rattus norvegicus [34] = experiment: Drug elimination in Wistar rat assessed as [3H]labeled drug level at 54 umol/kg, iv after 24 hrs; type: ADME, organism-based; conditions: in vivo
Heme [35] = system: Heme
Heme [36] = system: Heme; remark: listed apart in the source

T1 sequence (P08684 whole entry): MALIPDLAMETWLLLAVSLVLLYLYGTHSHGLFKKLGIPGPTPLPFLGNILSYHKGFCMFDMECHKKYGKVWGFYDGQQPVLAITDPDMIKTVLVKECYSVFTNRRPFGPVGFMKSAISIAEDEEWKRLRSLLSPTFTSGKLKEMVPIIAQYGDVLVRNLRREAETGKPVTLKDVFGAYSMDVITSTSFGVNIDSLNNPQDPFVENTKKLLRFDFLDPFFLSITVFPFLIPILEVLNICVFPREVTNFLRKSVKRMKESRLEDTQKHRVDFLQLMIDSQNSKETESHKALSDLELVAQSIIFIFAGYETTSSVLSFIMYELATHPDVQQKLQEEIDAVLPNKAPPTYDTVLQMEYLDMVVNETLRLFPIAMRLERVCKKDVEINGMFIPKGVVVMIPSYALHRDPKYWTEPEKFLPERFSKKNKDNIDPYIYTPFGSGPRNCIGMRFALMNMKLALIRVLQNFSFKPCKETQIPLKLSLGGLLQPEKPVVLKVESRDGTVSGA
Cytochrome P450 2C19, sequence (P33261 whole entry): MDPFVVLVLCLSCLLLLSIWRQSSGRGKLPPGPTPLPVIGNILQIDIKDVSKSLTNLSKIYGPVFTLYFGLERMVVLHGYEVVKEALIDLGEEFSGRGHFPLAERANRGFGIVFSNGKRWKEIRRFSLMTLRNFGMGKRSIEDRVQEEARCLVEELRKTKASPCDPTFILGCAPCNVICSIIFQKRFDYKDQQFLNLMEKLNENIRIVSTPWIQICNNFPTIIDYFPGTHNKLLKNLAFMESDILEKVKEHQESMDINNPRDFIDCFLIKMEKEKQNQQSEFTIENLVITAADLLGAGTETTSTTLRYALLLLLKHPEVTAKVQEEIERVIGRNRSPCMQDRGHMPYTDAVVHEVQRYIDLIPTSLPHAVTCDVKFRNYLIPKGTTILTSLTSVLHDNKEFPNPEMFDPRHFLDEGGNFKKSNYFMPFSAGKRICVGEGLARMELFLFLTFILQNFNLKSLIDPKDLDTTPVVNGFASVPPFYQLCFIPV
Cytochrome P450 2C9, sequence (P11712 whole entry): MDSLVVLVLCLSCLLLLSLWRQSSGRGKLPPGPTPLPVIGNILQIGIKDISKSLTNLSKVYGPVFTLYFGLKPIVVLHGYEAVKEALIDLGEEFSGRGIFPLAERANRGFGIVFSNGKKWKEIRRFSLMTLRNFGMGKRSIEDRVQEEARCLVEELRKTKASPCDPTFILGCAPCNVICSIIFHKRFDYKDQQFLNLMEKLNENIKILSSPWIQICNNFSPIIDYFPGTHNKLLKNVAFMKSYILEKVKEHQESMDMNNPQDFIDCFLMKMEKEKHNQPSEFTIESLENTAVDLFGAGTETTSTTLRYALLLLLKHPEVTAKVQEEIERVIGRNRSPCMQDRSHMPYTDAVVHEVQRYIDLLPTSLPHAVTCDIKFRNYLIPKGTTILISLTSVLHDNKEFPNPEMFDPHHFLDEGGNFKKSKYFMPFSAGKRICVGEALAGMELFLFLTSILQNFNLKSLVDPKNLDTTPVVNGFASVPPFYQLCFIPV
Cytochrome P450 2D6, sequence (P10635 whole entry): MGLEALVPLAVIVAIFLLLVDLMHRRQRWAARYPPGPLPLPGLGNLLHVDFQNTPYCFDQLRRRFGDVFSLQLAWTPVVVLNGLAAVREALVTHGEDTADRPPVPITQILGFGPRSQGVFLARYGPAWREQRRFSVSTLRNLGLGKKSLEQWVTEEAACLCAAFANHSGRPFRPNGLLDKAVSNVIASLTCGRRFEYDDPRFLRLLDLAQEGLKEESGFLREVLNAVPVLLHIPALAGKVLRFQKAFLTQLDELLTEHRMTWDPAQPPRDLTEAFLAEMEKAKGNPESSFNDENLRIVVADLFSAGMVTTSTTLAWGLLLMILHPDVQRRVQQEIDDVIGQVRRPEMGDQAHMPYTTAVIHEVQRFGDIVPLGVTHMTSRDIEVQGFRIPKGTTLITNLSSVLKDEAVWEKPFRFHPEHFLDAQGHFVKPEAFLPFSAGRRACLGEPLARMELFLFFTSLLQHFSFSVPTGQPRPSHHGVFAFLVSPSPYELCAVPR

## Fc1ccc(Nc2ccnc3cc(Cl)ccc23)cc1CN1CCCCC1
Plasmodium falciparum [1]
  pIC50: 7.48

## CCNCc1cc(Nc2ccnc3cc(Cl)ccc23)ccc1O [DESETHYL AMODIAQUINE]
Cytochrome P450 3A4 [2]
  pIC50: 4.62
Cytochrome P450 1A2
  pIC50: 4.55
Cytochrome P450 2C9
  pIC50: 4.24
Cytochrome P450 3A4 [3]
  pIC50: < 4.00
Cytochrome P450 2D6
  pIC50: 5.19
Cytochrome P450 2C8
  pIC50: 4.70
Cytochrome P450 2C19
  pIC50: 4.27

## CN1CCN(Cc2cc(Nc3ccnc4cc(Cl)ccc34)ccc2F)CC1
Plasmodium falciparum [1]
  pIC50: 7.45

## OC(c1cc(C(F)(F)F)nc2c(C(F)(F)F)cccc12)C1CCCCN1 (stereo unspecified)
Heme [4]
  log Ks: 3.84
Heme [5]
  log Ks: 3.17

## CCNCc1ccc(Nc2ccnc3cc(Cl)ccc23)cc1O [DESETHYL ISOQUINE]
Plasmodium yoelii [6]
  Activity: >40 mg/kg
[7]
  bioavailability: 100%
[8]
  clearance: 61.5 mL/min/kg
[9]
  bioavailability: 60%
Plasmodium yoelii [10]
  ED50: 5.5 mg/kg
  ED90: 8 mg/kg
[11]
  clearance: 43.5 mL/min/kg

## Fc1ccc(Nc2ccnc3cc(Cl)ccc23)cc1CN1CCCC1
Plasmodium falciparum [12]
  pIC50: 7.28
Plasmodium falciparum [13]
  pIC50: 7.34
Plasmodium falciparum [14]
  pIC50: 7.33
Plasmodium falciparum [15]
  pIC50: 7.20
Plasmodium falciparum [16]
  pIC50: 7.60
Plasmodium falciparum [1]
  pIC50: 7.53
Plasmodium falciparum [17]
  pIC50: 7.46
Plasmodium falciparum [18]
  pIC50: 7.22
Plasmodium falciparum [19]
  pIC50: 7.43

## CC(C)(C)NCc1cc(Nc2ccnc3cc(Cl)ccc23)ccc1Cl
Rattus norvegicus [20]
  Activity: 60.76%
[21]
  selectivity ratio: 11900
[22]
  CC50 at 6 h: 120 µM
Rattus norvegicus [23]
  Activity: 11.39%
[24]
  Activity: 14.9%
[25]
  logD: 3
Plasmodium berghei
  ED50: 13.4 mg/kg
  ED90: 27.3 mg/kg
Plasmodium falciparum [15]
  pIC50: 8.09
[26]
  Activity: 14.88%
Kidney [27]
  Drug uptake: 5.43 %ID
[28]
  IC50: 1.66 molar ratio
Liver [29]
  Drug uptake: 1.87 %ID
Plasmodium falciparum [1]
  pIC50: 8.11
Rattus norvegicus [30]
  Activity: 4.52%
Lung
  Drug uptake: 0.25 %ID
Liver [31]
  Drug uptake: 12.41%
Plasmodium falciparum [18]
  pIC50: 8.35
[32]
  logP: 5.59
Kidney [33]
  Drug uptake: 0.31 %ID
Rattus norvegicus [34]
  Activity: 61%

## Fc1ccc(Nc2ccnc3cc(Cl)ccc23)cc1Cn1ccnc1
[28]
  IC50: 1.78 molar ratio
Plasmodium falciparum [1]
  pIC50: 7.57

## Clc1ccc2c(Nc3ccc(Cl)c(CN4CCN(c5ccccn5)CC4)c3)ccnc2c1
Plasmodium falciparum [15]
  pIC50: 6.31
Plasmodium falciparum [1]
  pIC50: 7.57
Plasmodium falciparum [18]
  pIC50: 6.30

## Fc1ccc(Nc2ccnc3cc(Cl)ccc23)cc1CN1CCOCC1
Plasmodium falciparum [1]
  pIC50: 6.26

## CC(C)(C)NCc1cccc(Nc2ccnc3cc(Cl)ccc23)c1
[28]
  IC50: 1.65 molar ratio

## CCN1CCN(Cc2cc(Nc3ccnc4cc(Cl)ccc34)ccc2Cl)CC1
Plasmodium falciparum [15]
  pIC50: 8.02
Plasmodium falciparum [1]
  pIC50: 7.40
Plasmodium falciparum [18]
  pIC50: 7.99

## CCN(CC)Cc1cc(Nc2ccnc3cc(Cl)ccc23)ccc1Cl
Plasmodium falciparum [15]
  pIC50: 7.91
Plasmodium falciparum [1]
  pIC50: 7.52
Plasmodium falciparum [18]
  pIC50: 7.99

## Clc1ccc2c(Nc3cccc(Cn4ccnc4)c3)ccnc2c1
[28]
  IC50: 2.65 molar ratio

## c1ccncc1
Heme [35]
  log Ks: 2.24
Heme [36]
  log Ks: 2.54
Heme [4]
  log Ks: 2.5
Heme [5]
  log Ks: 0.18
